Experimental data taken from patent US20010039287A1, “AROMATIC SULFONE HYDROXAMIC ACID METALLOPROTEASE INHIBITOR” (priority 1997, published 2001).
Counter-ions that a name gives are not always drawn. Like-named read-outs stand apart in the source and are kept apart here.

Key:
recombinant human MMP-1 = target: T1, recombinant human MMP-1 (Homo sapiens, UniProt P03956); assay: biochemical; conditions: read-out: MMP-1 IC50
T1 construct: made in house; host or cells: transfected HT-1080 cells (provided by Dr. Harold Welgus, Washington University)
T1 sequence (P03956 100-469): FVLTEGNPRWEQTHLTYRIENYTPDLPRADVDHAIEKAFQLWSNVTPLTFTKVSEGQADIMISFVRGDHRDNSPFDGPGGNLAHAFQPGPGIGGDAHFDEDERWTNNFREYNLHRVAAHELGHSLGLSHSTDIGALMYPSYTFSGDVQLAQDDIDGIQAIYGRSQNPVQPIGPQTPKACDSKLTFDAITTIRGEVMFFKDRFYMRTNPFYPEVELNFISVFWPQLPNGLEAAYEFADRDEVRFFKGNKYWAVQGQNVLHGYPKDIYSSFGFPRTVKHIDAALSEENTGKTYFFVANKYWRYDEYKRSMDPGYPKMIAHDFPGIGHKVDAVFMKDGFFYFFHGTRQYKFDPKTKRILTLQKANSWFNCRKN

TNFα = assay: Tumor necrosis factor assay: TNFα ELISA on PMA-stimulated U-937 cell supernatant; conditions: Homo sapiens, U-937, read-out: TNFα Release IC50 in micromolar
recombinant human MMP-2 = target: T2, recombinant human MMP-2 (Homo sapiens, UniProt P08253); assay: biochemical; conditions: read-out: MMP-2 IC50
T2 sequence (P08253 110-660): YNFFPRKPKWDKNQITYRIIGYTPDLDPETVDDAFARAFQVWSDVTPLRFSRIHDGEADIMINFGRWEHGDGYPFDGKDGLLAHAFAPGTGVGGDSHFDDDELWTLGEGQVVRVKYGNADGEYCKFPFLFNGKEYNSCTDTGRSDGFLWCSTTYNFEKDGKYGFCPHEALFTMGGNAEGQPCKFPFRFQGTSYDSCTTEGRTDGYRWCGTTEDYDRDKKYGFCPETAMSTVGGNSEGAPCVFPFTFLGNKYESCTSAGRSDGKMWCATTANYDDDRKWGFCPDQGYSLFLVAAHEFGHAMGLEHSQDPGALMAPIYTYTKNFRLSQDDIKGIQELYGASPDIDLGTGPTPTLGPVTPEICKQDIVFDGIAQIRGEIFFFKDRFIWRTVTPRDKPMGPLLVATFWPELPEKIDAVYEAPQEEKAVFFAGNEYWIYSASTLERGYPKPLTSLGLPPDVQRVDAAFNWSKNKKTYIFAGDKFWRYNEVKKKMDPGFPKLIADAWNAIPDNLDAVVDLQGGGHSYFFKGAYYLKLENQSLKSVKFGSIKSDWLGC

recombinant human MMP-9 = recombinant human MMP-9 (Homo sapiens, UniProt P14780); assay: biochemical; conditions: read-out: MMP-9 IC50
Chain of recombinant human MMP-9 (P14780 107-707 limits assumed): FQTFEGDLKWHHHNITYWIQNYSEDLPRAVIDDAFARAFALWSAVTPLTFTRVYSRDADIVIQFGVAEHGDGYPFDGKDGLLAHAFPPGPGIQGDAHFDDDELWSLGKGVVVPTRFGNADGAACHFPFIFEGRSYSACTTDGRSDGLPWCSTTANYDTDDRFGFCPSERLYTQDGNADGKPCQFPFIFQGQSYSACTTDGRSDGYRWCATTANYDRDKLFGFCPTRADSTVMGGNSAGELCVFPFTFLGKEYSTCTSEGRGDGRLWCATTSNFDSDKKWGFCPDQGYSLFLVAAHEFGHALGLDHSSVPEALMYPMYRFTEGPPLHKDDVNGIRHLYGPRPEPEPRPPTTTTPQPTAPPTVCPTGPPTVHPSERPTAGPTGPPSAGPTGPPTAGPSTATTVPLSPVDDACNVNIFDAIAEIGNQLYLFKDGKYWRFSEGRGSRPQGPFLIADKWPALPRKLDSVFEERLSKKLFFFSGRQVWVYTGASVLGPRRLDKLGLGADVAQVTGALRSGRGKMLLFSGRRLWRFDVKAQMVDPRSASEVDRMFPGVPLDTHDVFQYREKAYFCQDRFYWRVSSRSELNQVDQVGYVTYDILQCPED

recombinant human MMP-13 = recombinant human MMP-13 (Homo sapiens, UniProt P45452); assay: biochemical; conditions: read-out: MMP-13 IC50
[1] = set-up: AUC (0-∞): unit not given beside the values; conditions: for t½ Hour: Rat Intravenous 20 mpk
[2] = tested on: neovascularization of the corneal stroma; assay: In vivo angiogenesis assay (corneal micropocket, bFGF pellet); conditions: mouse corneal micropocket, 50 mpk bid po, day five, area of neovascularization vs control
Description: The study of angiogenesis depends on a reliable and reproducible model for the stimulation and inhibition of a neovascular response. The corneal micropocket assay provides such a model of angiogenesis in the cornea of a mouse. See, A Model of Angiogenesis in the Mouse Cornea; Kenyon, B M, et al., Investigative ophthalmology & Visual Science, July 1996, Vol. 37, No. 8.
In this assay, uniformLy sized Hydron™ pellets containing bFGF and sucralfate were prepared and surgically implanted into the stroma mouse cornea adjacent to the temporal limbus. […]
Mice were dosed on a daily basis for the duration of the assay. […] At day five, the degree of angiogenic inhibition was scored by viewing the neovascular progression with a slit lamp microscope.
The mice were anesthetized and the studied eye was once again proptosed. The maximum vessel length of neovascularization, extending from the limbal vascular plexus toward the pellet was measured. In addition, the contiguous circumferential zone of neovascularization was measured as clock hours, where 30 degrees of arc equals one clock hour. The area of angiogenesis was calculated as follows. […]
Five to six mice were utilized for each compound in each study. The studied mice were thereafter compared to control mice and the difference in the area of neovascularization was recorded as an averaged value. […]

[3] = tested on: PC-3 human pancreatic cancer cells (ATCC CRL 1435); assay: In vivo PC-3 tumor reduction; set-up: species or system mouse; conditions: PC-3 tumor in Balb/c nu/nu mice, day 25-30
Description: PC-3 human pancreatic cancer eclls (ATCC CRL 1435) were grown to 90% confluence in F12/MEM (Gibco) containing 7% FBS (Gibco). Cells were mechanically harvested using a rubber scraper, and then washed twice with cold medium. The resulting cells were resuspended in cold medium with 30% matrigel (Collaborative Research) and the cell-containing medium was maintained on ice until used.
Balb/c nu/nu mice at 7-9 weeks of age were anesthetized with avertin [2,2, 2-tribromethanol/t-amyl alcohol (1 g/l mL) diluted 1:60 into phosphate-buffered sline] and 3-5×10^6 of the above cells in 0.2 mL of medium were injected into the left flank of each mouse. Cells were injected in the morning, whereas dosing with an inhibitor began at 6 PM. The animals were gavaged BID from day zero (cell injection day) to day 25-30, at which time the animals were euthanized and tumors weighed.
Compounds were dosed at 10 mg/mL in 0.5% methylcellulose/0.1% polysorbate 80 to provide a 50 mg/kg (mpk) dose twice each day, or diluted to provide a 10 mg/kg (mpk) dose twice each day. Tumor measurements began on day 7 and continued every third or fourth day until completion of the study. Groups of ten mice were used in each study and nine to ten survived. Each group of mice so studied constitutes an “n” value of one, so that “n” values greater than one represent multiple studies whose averaged result is provided in the table. […]

[4] = tested on: solid tumor cancers (colorectal, pancreatic, ovarian, prostate); conditions: cited from earlier work

| Structure (SMILES) | IC50 (recombinant human MMP-1; Inhibition Table A) [nM] | IC50 (TNFα) [µM] | IC50 (recombinant human MMP-2; Inhibition Table A) [nM] | IC50 (recombinant human MMP-13; Inhibition Table A) [nM] | other results |
| --- | --- | --- | --- | --- | --- |
| O=C(NO)C1(S(=O)(=O)c2ccc(Sc3ccc(F)cc3)cc2)CCN(C2CC2)CC1 [Example 27] | > 10000 | > 80 | 0.4 | 0.45 | IC50 (recombinant human MMP-9; Inhibition Table A): 4 nM |
| C#CCN1CCC(C(=O)NO)(S(=O)(=O)c2ccc(SC3CCCCC3)cc2)CC1 [Example 13] | – | > 50 | 0.4 | 0.6 | – |
| O=C(NO)C1(S(=O)(=O)c2ccc(Oc3ccccc3)cc2)CCNCC1 [Example 4] | 1090 | > 50 | 0.23 | 0.35 | IC50 (recombinant human MMP-9; Inhibition Table A): 5 nM |
| O=C(NO)C1(S(=O)(=O)c2ccc(Oc3ccc(OC(F)(F)F)cc3)cc2)CCOCC1 [Example 69] | – | > 80 | – | – | AUC (0-∞) ([1]; rat, in vivo): 63.78; Blood Level @ 3 min ([1]; rat, in vivo): 44000 ng/mL; Blood Level @ 3 min ([1]; rat, in vivo, iv, 20 mg/kg): 44000 ng/mL |
| CNC(=O)[C@@H](NC(=O)[C@H](CC(C)C)[C@H](O)C(=O)NO)C(C)(C)C [marimastat] | – | – | – | – | Inhibition of Angiogenesis [2]: 48 (n = 6) percent; Average Percentage Reduction In Tumor Weight ([3]; 10 mpk BID gavage): <5 Percentage; Average Percentage Reduction In Tumor Weight ([3]; 50 mpk BID gavage): 39 (n = 2) Percentage; most common drug-related toxicity ([4]; clinical trials, patients): musculoskeletal pain and stiffness; cancer-specific antigens used as surrogate markers for biological activity ([4]; patients with advanced, rapidly progressive, treatment-refractory solid tumor cancers): dose-related reduction in the rise of cancer-specific antigens |
| O=C(NO)C1(S(=O)(=O)c2ccc(Sc3ccccc3)cc2)CCOCC1 [Example 95, Tetrahydro-N-hydroxy-4-[[4-(phenylthio)phenyl]sulfonyl]-2H-pyran-4-carboxamide] | – | > 50 | – | – | IC50 (recombinant human MMP-1; Inhibition Table B): > 10000 nM; IC50 (recombinant human MMP-2; Inhibition Table B): 1 nM; t½ Hour [1]: 1.06 h; IC50 (recombinant human MMP-9; Inhibition Table B): 3.6 nM; IC50 (recombinant human MMP-13; Inhibition Table B): 0.5 nM |
| C#CCN1CCC(C(=O)NO)(S(=O)(=O)c2ccc(Oc3ccc4c(c3)OCO4)cc2)CC1 [Example 10] | 1600 | > 50 | – | 0.4 | – |
| O=C(NO)C1(S(=O)(=O)c2ccc(Oc3ccc(C(F)(F)F)cc3)cc2)CCOCC1 [Example 379] | – | 80 | – | – | t½ Hour [1]: 1.74 h |
| COCCN1CCC(C(=O)NO)(S(=O)(=O)c2ccc(Sc3ccccc3)cc2)CC1 [Example 35, N—hydroxy-1-(2-methoxyethyl)-4-[[4-(phenylthio)phenyl]-sulfonyl]-4-piperidinecarboxamide, Monohydrochloride] | – | > 80 | – | – | IC50 (recombinant human MMP-1; Inhibition Table B): > 10000 nM; IC50 (recombinant human MMP-2; Inhibition Table B): 0.3 nM; IC50 (recombinant human MMP-9; Inhibition Table B): 3 nM; IC50 (recombinant human MMP-13; Inhibition Table B): 0.5 nM |
| C#CCN1CCC(C(=O)NO)(S(=O)(=O)c2ccc(Oc3ccccc3)cc2)CC1 [Example 6] | 327 | > 50 | 0.15 | 0.25 | – |
